Laboratory results published in ChEMBL document CHEMBL3046647, “Khayasin and 2S-methylbutanoylproceranolide: Promising candidate insecticides for the control of the coconut leaf beetle, Brontispa longissima” (2011).
In brackets after ≈: the same amount, converted by molar mass.

Assays:
Format in all cases: functional
Brontispa longissima [1] = assay: Insecticidal activity against Brontispa longissima second-instar larvae fed on compound pre-treated Cocos nucifera L. leaves assessed as insect mortality at 50 ug/ml measured 24 hr after compound treatment; conditions: in Cocos nucifera
Brontispa longissima [2] = assay: Insecticidal activity against Brontispa longissima third-instar larvae fed on compound pre-treated Cocos nucifera L. leaves assessed as insect mortality at 50 ug/ml measured 72 hr after compound treatment; conditions: in Cocos nucifera
Spodoptera litura [3] = assay: Antifeedant activity against Spodoptera litura third-instar larvae fed on compound pre-treated castor-oil plant leaves assessed as antifeedant rate at 1 mg/ml after 24 hr
Brontispa longissima [4] = assay: Insecticidal activity against Brontispa longissima fifth-instar larvae fed on compound pre-treated Cocos nucifera L. leaves assessed as insect mortality at 50 ug/ml measured 48 hr after compound treatment; conditions: in Cocos nucifera
Brontispa longissima [5] = assay: Insecticidal activity against Brontispa longissima third-instar larvae fed on compound pre-treated Cocos nucifera L. leaves assessed as insect mortality at 50 ug/ml measured 24 hr after compound treatment; conditions: in Cocos nucifera
Brontispa longissima [6] = assay: Insecticidal activity against Brontispa longissima fourth-instar larvae fed on compound pre-treated Cocos nucifera L. leaves assessed as insect mortality at 50 ug/ml measured 12 hr after compound treatment; conditions: in Cocos nucifera
Brontispa longissima [7] = assay: Insecticidal activity against Brontispa longissima fifth-instar larvae fed on compound pre-treated Cocos nucifera L. leaves assessed as insect mortality at 25 ug/ml measured 12 hr after compound treatment; conditions: in Cocos nucifera
Spodoptera litura [8] = assay: Antifeedant activity against Spodoptera litura third-instar larvae fed on compound pre-treated castor-oil plant leaves assessed as antifeedant rate at 0.5 mg/ml after 48 hr
Brontispa longissima [9] = assay: Insecticidal activity against Brontispa longissima second-instar larvae fed on compound pre-treated Cocos nucifera L. leaves assessed as insect mortality at 50 ug/ml measured 12 hr after compound treatment; conditions: in Cocos nucifera
Brontispa longissima [10] = assay: Insecticidal activity against Brontispa longissima fifth-instar larvae fed on compound pre-treated Cocos nucifera L. leaves assessed as insect mortality at 50 ug/ml measured 72 hr after compound treatment; conditions: in Cocos nucifera
Brontispa longissima [11] = assay: Insecticidal activity against Brontispa longissima fifth-instar larvae fed on compound pre-treated Cocos nucifera L. leaves assessed as insect mortality at 50 ug/ml measured 12 hr after compound treatment; conditions: in Cocos nucifera
Brontispa longissima [12] = assay: Insecticidal activity against Brontispa longissima fourth-instar larvae fed on compound pre-treated Cocos nucifera L. leaves assessed as insect mortality at 50 ug/ml measured 72 hr after compound treatment; conditions: in Cocos nucifera
Spodoptera litura [13] = assay: Insecticidal activity against Spodoptera litura third-instar larvae fed on compound pre-treated Ricinus communis L. leaves assessed as insect mortality at 1 mg/ml measured 12 days after compound treatment; conditions: in Ricinus communis
Spodoptera litura [14] = assay: Antifeedant activity against Spodoptera litura third-instar larvae fed on compound pre-treated castor-oil plant leaves assessed as antifeedant rate at 0.5 mg/ml after 24 hr
Brontispa longissima [15] = assay: Insecticidal activity against Brontispa longissima fifth-instar larvae fed on compound pre-treated Cocos nucifera L. leaves assessed as insect mortality at 25 ug/ml measured 72 hr after compound treatment; conditions: in Cocos nucifera
Brontispa longissima [16] = assay: Insecticidal activity against Brontispa longissima fifth-instar larvae fed on compound pre-treated Cocos nucifera L. leaves assessed as insect mortality at 50 ug/ml measured 24 hr after compound treatment; conditions: in Cocos nucifera
Brontispa longissima [17] = assay: Insecticidal activity against Brontispa longissima fourth-instar larvae fed on compound pre-treated Cocos nucifera L. leaves assessed as insect mortality at 50 ug/ml measured 48 hr after compound treatment; conditions: in Cocos nucifera
Brontispa longissima [18] = assay: Insecticidal activity against Brontispa longissima fifth-instar larvae fed on compound pre-treated Cocos nucifera L. leaves assessed as insect mortality at 25 ug/ml measured 24 hr after compound treatment; conditions: in Cocos nucifera
Brontispa longissima [19] = assay: Insecticidal activity against Brontispa longissima second-instar larvae fed on compound pre-treated Cocos nucifera L. leaves assessed as insect mortality at 50 ug/ml measured 48 hr after compound treatment; conditions: in Cocos nucifera
Brontispa longissima [20] = assay: Insecticidal activity against Brontispa longissima third-instar larvae fed on compound pre-treated Cocos nucifera L. leaves assessed as insect mortality at 50 ug/ml measured 48 hr after compound treatment; conditions: in Cocos nucifera
Brontispa longissima [21] = assay: Insecticidal activity against Brontispa longissima third-instar larvae fed on compound pre-treated Cocos nucifera L. leaves assessed as insect mortality at 50 ug/ml measured 12 hr after compound treatment; conditions: in Cocos nucifera
Brontispa longissima [22] = assay: Insecticidal activity against Brontispa longissima fifth-instar larvae fed on compound pre-treated Cocos nucifera L. leaves assessed as insect mortality measured 24 hr after compound treatment; conditions: in Cocos nucifera
Spodoptera litura [23] = assay: Insecticidal activity against Spodoptera litura third-instar larvae fed on compound pre-treated Ricinus communis L. leaves assessed as insect mortality at 0.5 mg/ml measured 12 days after compound treatment; conditions: in Ricinus communis
Spodoptera litura [24] = assay: Antifeedant activity against Spodoptera litura third-instar larvae fed on compound pre-treated castor-oil plant leaves assessed as antifeedant rate at 1 mg/ml after 48 hr
Brontispa longissima [25] = assay: Insecticidal activity against Brontispa longissima fourth-instar larvae fed on compound pre-treated Cocos nucifera L. leaves assessed as insect mortality at 50 ug/ml measured 24 hr after compound treatment; conditions: in Cocos nucifera
Brontispa longissima [26] = assay: Insecticidal activity against Brontispa longissima fifth-instar larvae fed on compound pre-treated Cocos nucifera L. leaves assessed as insect mortality at 25 ug/ml measured 48 hr after compound treatment; conditions: in Cocos nucifera
Brontispa longissima [27] = assay: Insecticidal activity against Brontispa longissima second-instar larvae fed on compound pre-treated Cocos nucifera L. leaves assessed as insect mortality at 50 ug/ml measured 72 hr after compound treatment; conditions: in Cocos nucifera
Brontispa longissima [28] = assay: Insecticidal activity against Brontispa longissima fifth-instar larvae fed on compound pre-treated Cocos nucifera L. leaves assessed as insect mortality measured 48 hr after compound treatment; conditions: in Cocos nucifera
Brontispa longissima [29] = assay: Insecticidal activity against Brontispa longissima fifth-instar larvae fed on compound pre-treated Cocos nucifera L. leaves assessed as insect mortality at 10 ug/ml measured 24 hr after compound treatment; conditions: in Cocos nucifera
Brontispa longissima [30] = assay: Insecticidal activity against Brontispa longissima fifth-instar larvae fed on compound pre-treated Cocos nucifera L. leaves assessed as insect mortality at 10 ug/ml measured 72 hr after compound treatment; conditions: in Cocos nucifera
Brontispa longissima [31] = assay: Insecticidal activity against Brontispa longissima fifth-instar larvae fed on compound pre-treated Cocos nucifera L. leaves assessed as insect mortality at 10 ug/ml measured 12 hr after compound treatment; conditions: in Cocos nucifera
Brontispa longissima [32] = assay: Insecticidal activity against Brontispa longissima fifth-instar larvae fed on compound pre-treated Cocos nucifera L. leaves assessed as insect mortality at 10 ug/ml measured 48 hr after compound treatment; conditions: in Cocos nucifera
Brontispa longissima [33] = assay: Insecticidal activity against Brontispa longissima fifth-instar larvae fed on compound pre-treated Cocos nucifera L. leaves assessed as insect mortality at 1 ug/ml measured 48 hr after compound treatment; conditions: in Cocos nucifera
Brontispa longissima [34] = assay: Insecticidal activity against Brontispa longissima fifth-instar larvae fed on compound pre-treated Cocos nucifera L. leaves assessed as insect mortality at 1 ug/ml measured 12 hr after compound treatment; conditions: in Cocos nucifera
Brontispa longissima [35] = assay: Insecticidal activity against Brontispa longissima fifth-instar larvae fed on compound pre-treated Cocos nucifera L. leaves assessed as insect mortality at 1 ug/ml measured 24 hr after compound treatment; conditions: in Cocos nucifera
Brontispa longissima [36] = assay: Insecticidal activity against Brontispa longissima fifth-instar larvae fed on compound pre-treated Cocos nucifera L. leaves assessed as insect mortality at 1 ug/ml measured 72 hr after compound treatment; conditions: in Cocos nucifera
Brontispa longissima [37] = assay: Insecticidal activity against Brontispa longissima fifth-instar larvae fed on compound pre-treated Cocos nucifera L. leaves assessed as insect mortality at 5 ug/ml measured 24 hr after compound treatment; conditions: in Cocos nucifera
Brontispa longissima [38] = assay: Insecticidal activity against Brontispa longissima fifth-instar larvae fed on compound pre-treated Cocos nucifera L. leaves assessed as insect mortality at 5 ug/ml measured 12 hr after compound treatment; conditions: in Cocos nucifera
Brontispa longissima [39] = assay: Insecticidal activity against Brontispa longissima fifth-instar larvae fed on compound pre-treated Cocos nucifera L. leaves assessed as insect mortality at 5 ug/ml measured 48 hr after compound treatment; conditions: in Cocos nucifera
Brontispa longissima [40] = assay: Insecticidal activity against Brontispa longissima fifth-instar larvae fed on compound pre-treated Cocos nucifera L. leaves assessed as insect mortality at 5 ug/ml measured 72 hr after compound treatment; conditions: in Cocos nucifera

| SMILES | mortality at 50 µg/mL (Brontispa longissima [1]) [%] | mortality at 50 µg/mL (Brontispa longissima [2]) [%] | Activity (Spodoptera litura [3]) [%] | mortality at 50 µg/mL (Brontispa longissima [4]) [%] | mortality at 50 µg/mL (Brontispa longissima [5]) [%] | mortality at 50 µg/mL (Brontispa longissima [6]) [%] | mortality at 50 µg/mL (Brontispa longissima [9]) [%] | mortality at 50 µg/mL (Brontispa longissima [10]) [%] | mortality at 50 µg/mL (Brontispa longissima [11]) [%] | mortality at 50 µg/mL (Brontispa longissima [12]) [%] | mortality at 1000 µg/mL (Spodoptera litura [13]) [%] | mortality at 50 µg/mL (Brontispa longissima [16]) [%] | mortality at 50 µg/mL (Brontispa longissima [17]) [%] | mortality at 50 µg/mL (Brontispa longissima [19]) [%] | mortality at 50 µg/mL (Brontispa longissima [20]) [%] | mortality at 50 µg/mL (Brontispa longissima [21]) [%] | LC50 (Brontispa longissima [22]) [µg/mL] | Activity (Spodoptera litura [24]) [%] | mortality at 50 µg/mL (Brontispa longissima [25]) [%] | mortality at 50 µg/mL (Brontispa longissima [27]) [%] | also measured |
| --- | --- | --- | --- | --- | --- | --- | --- | --- | --- | --- | --- | --- | --- | --- | --- | --- | --- | --- | --- | --- | --- |
| CC[C@H](C)C(=O)O[C@@H]1[C@H]2CC3=C4CC(=O)O[C@@H](c5ccoc5)[C@]4(C)CC[C@@H]3[C@@](C)(C2=O)[C@@H](CC(=O)OC)C1(C)C [2'S-METHYLBUTANOYLPROCERANOLIDE] | 6.67 | 14.3 | 48.4 | 96.7 | 7.14 | 0 | 3.33 | 100 | 96.7 | 0 | 50 | 96.7 | 0 | 16.7 | 7.14 | 3.57 | 10.6 (≈ 19.1 µM) | 53 | 0 | 23.3 | mortality at 25 µg/mL (Brontispa longissima [7]): 76.7%; Activity (Spodoptera litura [8]): 41.7%; Activity (Spodoptera litura [14]): 33.9%; mortality at 25 µg/mL (Brontispa longissima [15]): 86.7%; mortality at 25 µg/mL (Brontispa longissima [18]): 80%; mortality at 500 µg/mL (Spodoptera litura [23]): 24.1%; mortality at 25 µg/mL (Brontispa longissima [26]): 83.3%; LC50 (Brontispa longissima [28]): 4.03 µg/mL (≈ 7.27 µM) |
| C/C=C(\C)C(=O)O[C@H]1C[C@@H](OC(C)=O)[C@@]2(C(=O)OC)CO[C@H]3[C@@H](O)[C@@](C)([C@]45O[C@@]4(C)[C@@H]4C[C@H]5O[C@@H]5OC=C[C@@]54O)[C@H]4[C@]1(CO[C@]4(O)C(=O)OC)[C@@H]32 [AZADIRACHTIN A] |  |  |  | 10 |  |  |  | 10 | 3.33 |  |  | 10 |  |  |  |  |  |  |  |  | mortality at 10 µg/mL (Brontispa longissima [29]): 46.7%; mortality at 10 µg/mL (Brontispa longissima [30]): 63.3%; mortality at 10 µg/mL (Brontispa longissima [31]): 20%; mortality at 10 µg/mL (Brontispa longissima [32]): 56.7% |
| CCC(C)C(=O)OC1[C@@H]2CC3=C4CC(=O)O[C@@H](c5ccoc5)[C@]4(C)CCC3[C@@](C)(C2=O)[C@@H](CC(=O)OC)C1(C)C (some centres not stated) [KHAYASIN] | 100 | 100 | 48.4 | 100 | 100 | 100 | 100 | 100 | 96.7 | 100 | 50 | 100 | 100 | 100 | 100 | 100 | 7.28 (≈ 13.1 µM) | 53 | 100 | 100 | mortality at 1 µg/mL (Brontispa longissima [33]): 23.3%; mortality at 10 µg/mL (Brontispa longissima [29]): 79.3%; Activity (Spodoptera litura [8]): 41.7%; Activity (Spodoptera litura [14]): 33.9%; mortality at 1 µg/mL (Brontispa longissima [34]): 23.3%; mortality at 10 µg/mL (Brontispa longissima [30]): 86.3%; mortality at 10 µg/mL (Brontispa longissima [31]): 71.8%; mortality at 500 µg/mL (Spodoptera litura [23]): 24.1%; mortality at 10 µg/mL (Brontispa longissima [32]): 79.3%; mortality at 1 µg/mL (Brontispa longissima [35]): 20%; mortality at 1 µg/mL (Brontispa longissima [36]): 26.7%; LC50 (Brontispa longissima [28]): 3.39 µg/mL (≈ 6.11 µM) |
| C=C(C)[C@H]1Cc2c(ccc3c2O[C@@H]2COc4cc(OC)c(OC)cc4[C@@H]2C3=O)O1 [ROTENONE] |  |  |  | 96.7 |  |  |  | 100 | 86.7 |  |  | 86.7 |  |  |  |  | 5.32 (≈ 13.5 µM) |  |  |  | mortality at 5 µg/mL (Brontispa longissima [37]): 66.7%; mortality at 5 µg/mL (Brontispa longissima [38]): 60%; mortality at 10 µg/mL (Brontispa longissima [29]): 90%; mortality at 5 µg/mL (Brontispa longissima [39]): 73.3%; mortality at 10 µg/mL (Brontispa longissima [30]): 90%; mortality at 10 µg/mL (Brontispa longissima [31]): 80%; mortality at 10 µg/mL (Brontispa longissima [32]): 90%; mortality at 5 µg/mL (Brontispa longissima [40]): 76.7%; LC50 (Brontispa longissima [28]): 1.61 µg/mL (≈ 4.08 µM) |
| CC(=O)O[C@@H]1C[C@H](O)[C@@]23CO[C@@H](O)[C@]1(C)[C@@H]2C[C@@H](O)[C@]1(C)[C@@H]3C(=O)[C@H](OC(C)=O)[C@@]2(C)[C@H](c3ccoc3)C[C@H]3O[C@]321 [TOOSENDANIN] | 100 | 83.3 | 87.1 |  | 63.3 | 53.3 | 96.7 |  |  | 73.3 | 100 |  | 66.7 | 100 | 73.3 | 53.3 |  | 90.6 | 60 | 100 |  |
